We go through two molecules from patent US20140024653A1, “COMPOSITIONS AND METHODS FOR TREATING CANCER USING PI3K INHIBITOR AND MEK INHIBITOR” (priority 2011, published 2014).

The subject of series [1] is HT1080. Kind of series: SRB cell growth assay, 72 h. It is filed as cell-based, human. The gist of the method:
(§1)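 Exponential-phase cells pre-grown 24 h, then exposed to compound for 72 h at 37° C (final DMSO 0.1%). TCA-fixed, SRB-stained, OD read at 560 nm. GI50 is growth inhibition relative to net protein gain in controls, corrected using time-zero plates.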

Series [2] deals with J82. As to the kind of experiment: SRB cell growth assay, 72 h. It is filed as cell-based, human. Particulars: single agent, up to 50 μM. The method, boiled down: as §1
Series [3] deals with JAR. Kind of series: SRB cell growth assay, 72 h. Particulars: single agent, up to 50 μM. It is filed as cell-based, human. The gist of the method:
as §1

In series [4] the test system is MDAMB436. As to the kind of experiment: SRB cell growth assay, 72 h. It is filed as cell-based, human. The note with it: single agent, up to 50 μM. The method, boiled down: as §1
Series [5] deals with MHHES1. Kind of series: SRB cell growth assay, 72 h. The class given is cell-based, human. Particulars: single agent, up to 50 μM. The method, boiled down:
as §1

The subject of series [6] is NCIH82. As to the kind of experiment: SRB cell growth assay, 72 h. The note with it: single agent, up to 50 μM. The class given is cell-based, human. The method, boiled down:
as §1

Series [7] relates to PLCPRF5. Kind of series: SRB cell growth assay, 72 h. The class given is cell-based, human. The note with it: single agent, up to 50 μM. The gist of the method: as §1
The test system of series [8] is SF268. As to the kind of experiment: SRB cell growth assay, 72 h. The class given is cell-based, human. Particulars: single agent, up to 50 μM. The method, boiled down: as §1
Series [9] relates to A375. Kind of series: SRB cell growth assay, 72 h. It is filed as cell-based. Particulars: Homo sapiens, A-375, most sensitive cell lines. As for the experimental part: (§2) Cell growth and treatment were performed in 96-well microtitre plates CELLSTAR® (Greiner Bio-One, Germany). Cells harvested from exponential phase cultures by trypsinization were plated in 150 μl of media at optimal seeding densities. The optimal seeding densities for each cell line were determined to ensure exponential growth for the duration of the experiment. All cells growing without anticancer agents were sub-confluent by the end of the treatment as determined by visual inspection.
(§3) 150 μl of cells, after a 24-hour pre-growth period, were treated by mixing with 50 μl of the compound containing media (resulting in a final DMSO concentration of 0.1%). The cells were allowed to grow at 37° C. for 72 hours. In addition, all experiments contained a few plates with cells that were processed for measurement immediately after the 24 hours recovery period. These plates contained information about the cell number that existed before treatment, at time zero, and served to calculate the cytotoxicity.
(§4) After treatment, cells were precipitated by addition of 10% TCA. Prior to fixation, the media was aspirated as described. After an hour of incubation at 4° C., the plates were washed two times with 400 μl of deionized water. Cells were then stained with 100 μl of a 0.08% wt/v SRB. The plates were allowed to sit for at least 30 min. and washed six times with 1% acetic acid to remove unbound stain. The plates were left to dry at room temperature and bound SRB was solubilized with 100 μl of 10 mM Tris base. Measurement of optical density was performed at 560 nm on a Victor 2 plate reader (Perkin Elmer, Germany). The SRB values for A375 and H460 cell lines were near to saturation (2.5 OD units) due to the high protein content of these cells, but not cell confluence. The measurements for these cells were performed at 520 nm instead of 560 nm.
(§5) Using these measurements, cellular responses can be calculated for incomplete inhibition of cell growth (GI), complete inhibition of cell growth (T GI) and net loss of cells (LC) due to compound activity. […] This is the drug concentration causing a 50% reduction compared to the net protein increase in control cells during the drug incubation period. In other words, GI50 is IC50 corrected for time zero. Similar to IC90, calculated GI90 values are also reported for all compounds tested. TGI was calculated from Ti=Tz. […] It was calculated as 100×[(Ti−Tz)/Tz]=−50. However, due to 72 hours treatment, low cell seeding density was required and LC50 could rarely be achieved.

Series [10] has as its system CLS439. Kind of series: SRB cell growth assay, 72 h. The class given is cell-based. The note with it: Homo sapiens, highest tested concentration 50 μM, read-out: activity (estimated). As for the experimental part:
as §2, §3, §4, §5

Series [11] has as its system COLO205. Kind of series: SRB cell growth assay, 72 h. The class given is cell-based. The note with it: Homo sapiens, COLO 205, most sensitive cell lines. As for the experimental part: as §2, §3, §4, §5
The subject of series [12] is EFO21. Kind of series: SRB cell growth assay, 72 h. The class given is cell-based. The note with it: Homo sapiens, EFO-21, highest tested concentration 50 μM, read-out: activity (estimated). As to the method: as §2, §3, §4, §5
Series [13] relates to HT29. As to the kind of experiment: SRB cell growth assay, 72 h. It is filed as cell-based. Particulars: Homo sapiens, HT-29, most sensitive cell lines. As to the method:
as §2, §3, §4, §5

The test system of series [14] is NCIH292. Kind of series: SRB cell growth assay, 72 h. The note with it: Homo sapiens, NCI-H292, most sensitive cell lines. The class given is cell-based. As for the experimental part:
as §2, §3, §4, §5

Series [15] has as its system PC3. Kind of series: SRB cell growth assay, 72 h. The class given is cell-based. Particulars: Homo sapiens, PC-3, highest tested concentration 50 μM, read-out: activity (estimated). As to the method:
as §2, §3, §4, §5

The subject of series [16] is SAOS2. Kind of series: SRB cell growth assay, 72 h. The class given is cell-based. Particulars: Homo sapiens, SAOS-2, highest tested concentration 50 μM, read-out: activity (estimated). As for the experimental part:
as §2, §3, §4, §5

Series [17] relates to SF295. Kind of series: SRB cell growth assay, 72 h. The class given is cell-based. The note with it: Homo sapiens, SF-295, highest tested concentration 50 μM, read-out: activity (estimated). As for the experimental part: as §2, §3, §4, §5
Series [18] concerns SKMEL5. Kind of series: SRB cell growth assay, 72 h. The class given is cell-based. Particulars: Homo sapiens, SK-MEL-5, most sensitive cell lines. As to the method: as §2, §3, §4, §5
The subject of series [19] is SKNAS. As to the kind of experiment: SRB cell growth assay, 72 h. The class given is cell-based. The note with it: Homo sapiens, SK-N-AS, most sensitive cell lines. As to the method:
as §2, §3, §4, §5

The test system of series [20] is SKOV3. As to the kind of experiment: SRB cell growth assay, 72 h. The class given is cell-based. Particulars: Homo sapiens, SK-OV-3, highest tested concentration 50 μM, read-out: activity (estimated). As for the experimental part: as §2, §3, §4, §5
Series [21] deals with TE671. As to the kind of experiment: SRB cell growth assay, 72 h. The class given is cell-based. The note with it: Homo sapiens, TE-671, most sensitive cell lines. As for the experimental part:
as §2, §3, §4, §5

Series [22] concerns 217 kinases. The note with it: tested at 10 μM; cited from earlier work.
For series [23] the following is noted: mice; cited from earlier work.
The test system of series [24] is A204. As to the kind of experiment: SRB cell growth assay, 72 h. It is filed as cell-based. The note with it: Homo sapiens, most sensitive, z-score <−1.5. As to the method:
as §2, §3, §4, §5

Series [25] has as its system CAKI1. Kind of series: SRB cell growth assay, 72 h. It is filed as cell-based. The note with it: Homo sapiens, CAKI-1, most sensitive, z-score <−1.5. As for the experimental part:
as §2, §3, §4, §5

In series [26] the test system is IGROV1. As to the kind of experiment: SRB cell growth assay, 72 h. The class given is cell-based. The note with it: Homo sapiens, IGROV-1, most sensitive, z-score <−1.5. As to the method:
as §2, §3, §4, §5

Series [27] concerns IMR90. Kind of series: SRB cell growth assay, 72 h. The class given is cell-based. Particulars: Homo sapiens, IMR-90, most sensitive, z-score <−1.5. As to the method: as §2, §3, §4, §5
Series [28] deals with SW620. Kind of series: SRB cell growth assay, 72 h. The class given is cell-based. Particulars: Homo sapiens, SW-620, non-sensitive, z score >1.5. As to the method: as §2, §3, §4, §5

Consider `O=C(NC[C@H](O)CO)c1ccncc1Nc1ccc(I)cc1F` [Compound (1), N—((S)-2,3-dihydroxypropyl)-3-(2-fluoro-4-iodo-phenylamino)isonicotinamide], for which, in [1], the sensitivity result is on record as “very sensitive”. The “activity (cell growth inhibition)” value in [2], in series [3], in series [4], in series [5], in series [6] and in series [7] was “minimal activity” each time. For the same molecule, the “activity (cell growth inhibition)” value in [8] is on record as “minimal activity”. For the same molecule, the IC50 in series [9] was 4.8 to 8 nM; in series [10], over 50000 nM; in [11], 4.8 to 8 nM; in [12], over 50000 nM; in series [13], 4.8 to 8 nM; in series [14] it was 4.8 to 8 nM. Besides, the IC50 was over 50000 nM in [15]; over 50000 nM in series [16]; over 50000 nM in series [17]; 4.8 to 8 nM in series [18]; 4.8 to 8 nM in series [19]; over 50000 nM in series [20]. In [21], this molecule registered an IC50 of 4.8 to 8 nM. Besides, in [22], the “activity against 217 kinases” value is “no activity”. Also, the “two-week maximum tolerated dose” value in series [23] was 60 mg/kg BID.
Turning to `CCn1c(=O)c(-c2ccn[nH]2)cc2c(C)nc(N)nc21` [Compound (2b), 2-amino-8-ethyl-4-methyl-6-(1H-pyrazol-5-yl)pyrido[2,3-d]pyrimidin-7(8H)-one], the GI50 (as a rule, the concentration at which growth is held to half of that of the control) in [24] was under 500 nM; in series [25], under 500 nM; in series [26] it was under 500 nM; in series [27], under 500 nM; in [28] it was over 4000 nM.
